Here are results for three molecules from patent publication US8268363B2, “Pharmaceutical combination preparation containing glycyrrhizine, zinc, and a compound comprising a thiol group or a group that is metabolized thereto” (priority 2003, dated 2012).

The test system of the assay is flu symptoms (colds, flu, viral infection of the upper respiratory tract). As to the kind of experiment: clinical studies in flu symptoms: single substances and the combination. Particulars: single treatment; for effect on a scale of 1-10 (1 least effect, 10 maximum effect): daily dose divided in three doses; for average duration of the illness: daily dose divided in three doses (zinc 125 mg, N-acetylcysteine 2400 mg, glycyrrhicinic acid 1500 mg), without treatment normally 7 days. Format: in vivo, human. Here is the method:
In clinical studies each single substance was tested in flu symptoms (colds, flu, viral infection of the upper respiratory tract) whose duration without treatment normal lasted 7 days.
a) Zinc as a single treatment: • 125mg per day, divided in three doses:
b) N-Acetylcysteine • 2400 mg, divided in three doses;
c) Glycyrrhicinic acid • 1500 mg, divided in three doses;
The average duration of illness with the treatment combination of all three of the above substances a), b), and c) in the majority of the cases the duration of the illness was shortened to 24 hours or less. […] 24 hours later, 85% of the patients were completely without symptoms and able to return to work. The maximum duration in a few cases lasted 5 days.
Further, 20 children between the ages of 7 to 15 years old were treated with half of the doses from the combination of a) b) and c). The results were the same as for the adults.

Turning to `CC(=O)N[C@@H](CS)C(=O)O` [N-Acetylcysteine], the “effect on a scale of 1-10 (1 least effect, 10 maximum effect)” value (“effect on a scale” for short) is 5 and the “average duration of the illness” value was 4 days.
On to Glycyrrhicinic acid, for which the “effect on a scale” value turned out to be 2 and the “average duration of the illness” value was found to be 5.0 days.
Take Zinc: the “effect on a scale” value is recorded as 2 and the “average duration of the illness” value is 5 days.
